In the kinase profiling compilation of Christmann-Franck et al. (2016):
One block for each compound: values may come before it.

Assays:
Assay in all cases: KINOMEscan competition binding
Settings in all cases: compound 10.0 µM
[1] = test system: ABL1 (human), P00519 [M351T]
[2] = test system: ABL1 (human), P00519 [T315I]
[3] = target: ACVRL1 (human) (UniProt P37023)
[4] = target: ALK (human) (UniProt Q9UM73)
[5] = target: ANKK1 (human) (UniProt Q8NFD2)
[6] = target: CAMK1G (human) (UniProt Q96NX5)
[7] = target: CAMK2A (human) (UniProt Q9UQM7)
[8] = target: CDK15 (human) (UniProt Q96Q40)
[9] = target: CDK17 (human) (UniProt Q00537)
[10] = target: CDK2 (human) (UniProt P24941)
[11] = target: CDKL2 (human) (UniProt Q92772)
[12] = target: CSNK1A1L (human) (UniProt Q8N752)
CSNK1A1L (human), sequence (Q8N752 whole entry, looked up): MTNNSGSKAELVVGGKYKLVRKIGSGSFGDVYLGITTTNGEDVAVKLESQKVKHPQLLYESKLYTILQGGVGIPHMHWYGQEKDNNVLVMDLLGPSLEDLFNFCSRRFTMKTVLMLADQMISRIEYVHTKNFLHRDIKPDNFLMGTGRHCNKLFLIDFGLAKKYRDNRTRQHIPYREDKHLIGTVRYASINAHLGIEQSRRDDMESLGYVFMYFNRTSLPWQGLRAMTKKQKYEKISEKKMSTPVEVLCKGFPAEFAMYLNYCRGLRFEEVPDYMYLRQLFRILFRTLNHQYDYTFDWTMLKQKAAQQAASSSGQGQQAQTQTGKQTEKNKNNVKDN

[13] = target: EPHA8 (human) (UniProt P29322)
[14] = target: ERBB2 (human) (UniProt P04626)
[15] = target: FES (human) (UniProt P07332)
[16] = test system: FGFR3 (human), P22607 [G697C]
[17] = target: FLT4 (human) (UniProt P35916)
[18] = target: HCK (human) (UniProt P08631)
[19] = target: IGF1R (human) (UniProt P08069)
[20] = target: IKBKE (human) (UniProt Q14164)
[21] = target: INSRR (human) (UniProt P14616)
[22] = target: LTK (human) (UniProt P29376)
LTK (human), sequence (P29376 whole entry, looked up): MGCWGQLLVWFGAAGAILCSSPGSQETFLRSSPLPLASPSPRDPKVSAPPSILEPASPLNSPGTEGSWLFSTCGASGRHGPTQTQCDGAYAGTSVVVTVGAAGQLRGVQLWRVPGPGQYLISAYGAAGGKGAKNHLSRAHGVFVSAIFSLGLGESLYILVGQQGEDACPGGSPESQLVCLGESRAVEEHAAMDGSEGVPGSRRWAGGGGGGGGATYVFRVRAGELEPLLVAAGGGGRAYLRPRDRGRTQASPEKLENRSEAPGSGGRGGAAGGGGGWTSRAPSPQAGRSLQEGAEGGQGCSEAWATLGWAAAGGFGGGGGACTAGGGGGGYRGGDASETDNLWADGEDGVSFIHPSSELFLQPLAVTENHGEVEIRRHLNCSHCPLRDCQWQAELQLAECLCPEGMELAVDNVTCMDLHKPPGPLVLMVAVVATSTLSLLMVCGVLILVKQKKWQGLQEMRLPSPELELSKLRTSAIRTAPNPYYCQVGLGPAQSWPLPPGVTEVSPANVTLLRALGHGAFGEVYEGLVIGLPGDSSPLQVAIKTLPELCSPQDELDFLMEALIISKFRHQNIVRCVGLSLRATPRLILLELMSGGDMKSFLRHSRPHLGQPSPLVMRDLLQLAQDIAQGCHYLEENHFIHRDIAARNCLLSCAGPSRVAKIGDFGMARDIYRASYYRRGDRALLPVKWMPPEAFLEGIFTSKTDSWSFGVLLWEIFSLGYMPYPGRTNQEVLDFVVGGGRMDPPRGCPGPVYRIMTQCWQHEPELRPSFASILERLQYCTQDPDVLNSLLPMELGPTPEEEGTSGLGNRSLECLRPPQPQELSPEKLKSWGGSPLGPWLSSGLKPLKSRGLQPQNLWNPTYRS

[23] = target: MET (human) (UniProt P08581)
[24] = target: MST4 (human) (UniProt Q9P289)
[25] = target: MUSK (human) (UniProt O15146)
[26] = target: MYO3A (human) (UniProt Q8NEV4)
[27] = target: NEK9 (human) (UniProt Q8TD19)
NEK9 (human), sequence (Q8TD19 whole entry, looked up): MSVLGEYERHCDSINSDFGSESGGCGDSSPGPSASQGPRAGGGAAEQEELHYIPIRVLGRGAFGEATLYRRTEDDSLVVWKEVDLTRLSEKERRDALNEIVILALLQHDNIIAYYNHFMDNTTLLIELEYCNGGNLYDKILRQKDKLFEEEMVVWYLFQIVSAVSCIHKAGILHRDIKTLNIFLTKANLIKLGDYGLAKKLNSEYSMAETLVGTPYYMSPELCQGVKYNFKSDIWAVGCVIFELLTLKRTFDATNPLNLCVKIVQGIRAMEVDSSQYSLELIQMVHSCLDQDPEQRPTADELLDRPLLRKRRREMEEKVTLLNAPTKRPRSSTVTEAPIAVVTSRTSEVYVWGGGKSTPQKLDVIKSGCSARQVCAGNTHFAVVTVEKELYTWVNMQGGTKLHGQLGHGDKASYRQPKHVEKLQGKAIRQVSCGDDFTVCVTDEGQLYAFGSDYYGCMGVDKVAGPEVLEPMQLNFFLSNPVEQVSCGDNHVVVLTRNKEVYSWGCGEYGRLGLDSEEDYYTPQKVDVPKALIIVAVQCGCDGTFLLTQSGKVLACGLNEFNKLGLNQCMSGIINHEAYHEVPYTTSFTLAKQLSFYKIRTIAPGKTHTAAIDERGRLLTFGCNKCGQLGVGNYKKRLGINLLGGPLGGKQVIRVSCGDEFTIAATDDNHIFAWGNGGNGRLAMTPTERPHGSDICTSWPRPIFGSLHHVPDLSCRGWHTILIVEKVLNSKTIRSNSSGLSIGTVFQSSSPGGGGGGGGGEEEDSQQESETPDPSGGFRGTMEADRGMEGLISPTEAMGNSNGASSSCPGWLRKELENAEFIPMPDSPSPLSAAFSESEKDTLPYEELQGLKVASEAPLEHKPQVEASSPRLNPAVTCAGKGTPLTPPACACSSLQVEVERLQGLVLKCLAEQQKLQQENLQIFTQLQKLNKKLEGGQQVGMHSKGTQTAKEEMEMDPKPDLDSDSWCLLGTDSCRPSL

[28] = target: NLK (human) (UniProt Q9UBE8)
[29] = target: NUAK1 (human) (UniProt O60285)
[30] = target: PAK2 (human) (UniProt Q13177)
PAK2 (human), sequence (Q13177 whole entry, looked up): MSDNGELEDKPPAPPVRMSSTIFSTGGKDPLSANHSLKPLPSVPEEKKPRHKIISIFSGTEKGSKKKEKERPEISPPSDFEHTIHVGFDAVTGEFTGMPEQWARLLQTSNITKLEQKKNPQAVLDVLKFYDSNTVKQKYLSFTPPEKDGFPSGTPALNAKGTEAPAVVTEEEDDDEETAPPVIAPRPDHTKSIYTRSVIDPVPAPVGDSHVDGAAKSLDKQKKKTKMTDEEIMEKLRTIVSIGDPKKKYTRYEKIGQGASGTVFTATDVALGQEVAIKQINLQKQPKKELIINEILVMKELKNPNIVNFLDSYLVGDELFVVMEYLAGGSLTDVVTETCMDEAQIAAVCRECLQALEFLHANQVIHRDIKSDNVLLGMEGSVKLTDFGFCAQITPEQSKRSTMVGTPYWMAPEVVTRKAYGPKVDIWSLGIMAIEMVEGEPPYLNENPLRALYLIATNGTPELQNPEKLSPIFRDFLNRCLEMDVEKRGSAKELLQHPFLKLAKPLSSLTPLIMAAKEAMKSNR

[31] = target: PDPK1 (human) (UniProt O15530)
[32] = target: PTK2 (human) (UniProt Q05397)
[33] = target: ROCK2 (human) (UniProt O75116)
[34] = target: ROS1 (human) (UniProt P08922)
[35] = target: RPS6KA1 KD1 (human) (UniProt Q15418)
[36] = target: SGK110 (human) (UniProt P0C264)
[37] = target: SIK1 (human) (UniProt P57059)
[38] = target: SRPK1 (human) (UniProt Q96SB4)
[39] = target: STK36 (human) (UniProt Q9NRP7)
[40] = target: SYK (human) (UniProt P43405)
[41] = target: TEC (human) (UniProt P42680)
[42] = target: TLK2 (human) (UniProt Q86UE8)
[43] = target: YES1 (human) (UniProt P07947)

ALK (human), sequence (Q9UM73 whole entry, looked up): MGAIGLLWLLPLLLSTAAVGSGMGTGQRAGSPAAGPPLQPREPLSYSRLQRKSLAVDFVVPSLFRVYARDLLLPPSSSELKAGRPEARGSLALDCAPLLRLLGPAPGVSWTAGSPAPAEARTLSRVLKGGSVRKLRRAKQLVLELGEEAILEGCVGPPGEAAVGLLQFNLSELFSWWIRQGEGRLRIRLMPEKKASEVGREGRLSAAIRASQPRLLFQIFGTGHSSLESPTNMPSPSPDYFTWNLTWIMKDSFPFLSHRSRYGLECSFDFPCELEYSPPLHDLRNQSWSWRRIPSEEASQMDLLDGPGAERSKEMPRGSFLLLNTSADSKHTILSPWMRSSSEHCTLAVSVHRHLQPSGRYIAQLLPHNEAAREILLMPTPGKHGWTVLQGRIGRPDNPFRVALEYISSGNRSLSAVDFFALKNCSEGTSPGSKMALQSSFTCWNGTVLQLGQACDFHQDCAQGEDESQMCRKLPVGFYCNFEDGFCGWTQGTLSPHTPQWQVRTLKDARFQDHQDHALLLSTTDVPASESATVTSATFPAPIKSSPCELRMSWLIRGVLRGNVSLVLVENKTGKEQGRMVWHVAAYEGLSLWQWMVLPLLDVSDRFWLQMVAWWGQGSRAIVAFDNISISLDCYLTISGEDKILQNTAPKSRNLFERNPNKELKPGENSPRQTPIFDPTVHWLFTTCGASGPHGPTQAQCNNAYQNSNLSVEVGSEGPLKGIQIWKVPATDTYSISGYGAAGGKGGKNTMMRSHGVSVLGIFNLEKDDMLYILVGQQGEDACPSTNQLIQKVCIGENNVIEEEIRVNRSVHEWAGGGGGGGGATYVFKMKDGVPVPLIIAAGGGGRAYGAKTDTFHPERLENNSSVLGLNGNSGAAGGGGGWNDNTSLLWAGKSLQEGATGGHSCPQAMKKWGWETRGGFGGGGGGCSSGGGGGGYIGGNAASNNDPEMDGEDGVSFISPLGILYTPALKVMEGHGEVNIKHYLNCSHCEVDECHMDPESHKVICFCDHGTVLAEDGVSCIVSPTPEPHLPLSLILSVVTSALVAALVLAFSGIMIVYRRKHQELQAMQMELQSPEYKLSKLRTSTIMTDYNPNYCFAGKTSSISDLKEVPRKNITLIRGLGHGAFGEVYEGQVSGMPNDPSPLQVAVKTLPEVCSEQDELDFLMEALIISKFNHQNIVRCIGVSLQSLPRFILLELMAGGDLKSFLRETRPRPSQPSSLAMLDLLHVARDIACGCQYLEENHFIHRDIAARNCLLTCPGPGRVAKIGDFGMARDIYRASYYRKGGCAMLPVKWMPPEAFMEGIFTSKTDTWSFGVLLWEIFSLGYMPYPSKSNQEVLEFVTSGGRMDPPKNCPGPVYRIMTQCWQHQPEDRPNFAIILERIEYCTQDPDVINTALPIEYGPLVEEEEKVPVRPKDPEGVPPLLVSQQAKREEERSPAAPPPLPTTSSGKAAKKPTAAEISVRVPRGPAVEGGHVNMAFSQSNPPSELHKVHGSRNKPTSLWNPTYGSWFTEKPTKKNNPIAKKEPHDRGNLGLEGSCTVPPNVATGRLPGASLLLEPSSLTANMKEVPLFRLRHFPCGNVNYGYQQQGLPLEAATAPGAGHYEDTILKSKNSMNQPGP
ANKK1 (human), sequence (Q8NFD2 whole entry, looked up): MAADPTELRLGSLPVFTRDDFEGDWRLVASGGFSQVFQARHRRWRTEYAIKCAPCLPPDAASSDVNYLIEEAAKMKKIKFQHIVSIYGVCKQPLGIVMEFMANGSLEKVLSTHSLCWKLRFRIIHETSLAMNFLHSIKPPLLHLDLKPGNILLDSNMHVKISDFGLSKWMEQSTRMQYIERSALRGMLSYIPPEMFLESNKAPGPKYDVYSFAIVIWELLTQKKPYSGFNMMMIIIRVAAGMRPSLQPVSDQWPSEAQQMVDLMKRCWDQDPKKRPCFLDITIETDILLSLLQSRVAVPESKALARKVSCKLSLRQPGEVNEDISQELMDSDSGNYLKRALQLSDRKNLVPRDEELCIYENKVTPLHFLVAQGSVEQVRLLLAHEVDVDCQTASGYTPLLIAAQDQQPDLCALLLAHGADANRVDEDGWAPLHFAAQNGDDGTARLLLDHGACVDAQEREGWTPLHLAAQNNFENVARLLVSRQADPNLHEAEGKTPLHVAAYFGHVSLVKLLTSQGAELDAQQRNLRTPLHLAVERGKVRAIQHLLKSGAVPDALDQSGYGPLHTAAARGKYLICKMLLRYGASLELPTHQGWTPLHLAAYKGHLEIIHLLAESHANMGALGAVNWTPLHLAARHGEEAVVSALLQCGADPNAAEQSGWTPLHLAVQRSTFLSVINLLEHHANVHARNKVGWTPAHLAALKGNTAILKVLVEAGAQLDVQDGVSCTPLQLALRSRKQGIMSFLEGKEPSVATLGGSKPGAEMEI

Structure (SMILES): CN1CCN(c2ccc(C(=O)Nc3ncc4c(n3)N(C)c3ccccc3C(=O)N4C)cc2)CC1
kinase still bound, per cent of control [1]: 100% | kinase still bound, per cent of control [2]: 85% | kinase still bound, per cent of control [3]: 98% | kinase still bound, per cent of control [4]: 100% | kinase still bound, per cent of control [5]: 28% | kinase still bound, per cent of control [6]: 100% | kinase still bound, per cent of control [7]: 100% | kinase still bound, per cent of control [8]: 88% | kinase still bound, per cent of control [9]: 100% | kinase still bound, per cent of control [10]: 98% | kinase still bound, per cent of control [11]: 100% | kinase still bound, per cent of control [12]: 77% | kinase still bound, per cent of control [13]: 92% | kinase still bound, per cent of control [14]: 88% | kinase still bound, per cent of control [15]: 100% | kinase still bound, per cent of control [16]: 98% | kinase still bound, per cent of control [17]: 100% | kinase still bound, per cent of control [18]: 100% | kinase still bound, per cent of control [19]: 100% | kinase still bound, per cent of control [20]: 100% | kinase still bound, per cent of control [21]: 100% | kinase still bound, per cent of control [22]: 86% | kinase still bound, per cent of control [23]: 100% | kinase still bound, per cent of control [24]: 100% | kinase still bound, per cent of control [25]: 100% | kinase still bound, per cent of control [26]: 100% | kinase still bound, per cent of control [27]: 100% | kinase still bound, per cent of control [28]: 100% | kinase still bound, per cent of control [29]: 90% | kinase still bound, per cent of control [30]: 100% | kinase still bound, per cent of control [31]: 100% | kinase still bound, per cent of control [32]: 100% | kinase still bound, per cent of control [33]: 100% | kinase still bound, per cent of control [34]: 100% | kinase still bound, per cent of control [35]: 93% | kinase still bound, per cent of control [36]: 100% | kinase still bound, per cent of control [37]: 100% | kinase still bound, per cent of control [38]: 100% | kinase still bound, per cent of control [39]: 100% | kinase still bound, per cent of control [40]: 100% | kinase still bound, per cent of control [41]: 93% | kinase still bound, per cent of control [42]: 100% | kinase still bound, per cent of control [43]: 96%

Structure (SMILES): N=C1NC(=O)/C(=C/c2ccc(-c3csc4ccccc34)o2)S1
kinase still bound, per cent of control [4]: 32% | kinase still bound, per cent of control [29]: 31%

Structure (SMILES): O=C1NC(=S)S/C1=C\c1ccc(-c2cncc3ccccc23)o1
kinase still bound, per cent of control [4]: 30% | kinase still bound, per cent of control [5]: 34% | kinase still bound, per cent of control [6]: 34% | kinase still bound, per cent of control [7]: 22% | kinase still bound, per cent of control [17]: 28% | kinase still bound, per cent of control [22]: 13% | kinase still bound, per cent of control [26]: 19% | kinase still bound, per cent of control [30]: 31% | kinase still bound, per cent of control [32]: 28% | kinase still bound, per cent of control [34]: 34% | kinase still bound, per cent of control [42]: 26%

Structure (SMILES): N=C1NC(=O)/C(=C/c2ccc(-c3ccc(C(N)=O)cc3O)o2)S1
kinase still bound, per cent of control [7]: 28% | kinase still bound, per cent of control [8]: 13% | kinase still bound, per cent of control [9]: 28% | kinase still bound, per cent of control [10]: 19%

Structure (SMILES): N=C1NC(=O)/C(=C/c2ccc(-c3ccc(F)cc3O)o2)S1
kinase still bound, per cent of control [8]: 9.4% | kinase still bound, per cent of control [10]: 6.6% | kinase still bound, per cent of control [24]: 32% | kinase still bound, per cent of control [38]: 25%

Second part, led by results:

kinase still bound, per cent of control [1]: 78% | kinase still bound, per cent of control [2]: 100% | kinase still bound, per cent of control [3]: 100% | kinase still bound, per cent of control [4]: 11% | kinase still bound, per cent of control [5]: 91% | kinase still bound, per cent of control [6]: 100% | kinase still bound, per cent of control [7]: 75% | kinase still bound, per cent of control [8]: 68% | kinase still bound, per cent of control [9]: 100% | kinase still bound, per cent of control [10]: 75% | kinase still bound, per cent of control [11]: 81% | kinase still bound, per cent of control [12]: 100% | kinase still bound, per cent of control [13]: 100% | kinase still bound, per cent of control [14]: 6.6% | kinase still bound, per cent of control [15]: 100% | kinase still bound, per cent of control [16]: 100% | kinase still bound, per cent of control [17]: 100% | kinase still bound, per cent of control [18]: 96% | kinase still bound, per cent of control [19]: 100% | kinase still bound, per cent of control [20]: 100% | kinase still bound, per cent of control [21]: 55% | kinase still bound, per cent of control [22]: 26% | kinase still bound, per cent of control [23]: 90% | kinase still bound, per cent of control [24]: 91% | kinase still bound, per cent of control [25]: 100% | kinase still bound, per cent of control [26]: 74% | kinase still bound, per cent of control [28]: 100% | kinase still bound, per cent of control [29]: 100% | kinase still bound, per cent of control [30]: 94% | kinase still bound, per cent of control [31]: 79% | kinase still bound, per cent of control [32]: 85% | kinase still bound, per cent of control [33]: 50% | kinase still bound, per cent of control [34]: 21% | kinase still bound, per cent of control [35]: 97% | kinase still bound, per cent of control [36]: 52% | kinase still bound, per cent of control [37]: 100% | kinase still bound, per cent of control [38]: 100% | kinase still bound, per cent of control [39]: 88% | kinase still bound, per cent of control [40]: 99% | kinase still bound, per cent of control [41]: 100% | kinase still bound, per cent of control [42]: 96% | kinase still bound, per cent of control [43]: 100%
Structure (SMILES): COc1cc(N2CCN(C)CC2)ccc1Nc1ncc2c(n1)N(C)c1ccccc1N(C)C2=O
kinase still bound, per cent of control [27]: 97%

kinase still bound, per cent of control [8]: 34% | kinase still bound, per cent of control [10]: 20%
Structure (SMILES): N=C1NC(=O)/C(=C/c2ccc(-c3ccccc3O)o2)S1

kinase still bound, per cent of control [6]: 18% | kinase still bound, per cent of control [7]: 10% | kinase still bound, per cent of control [26]: 24% | kinase still bound, per cent of control [30]: 24% | kinase still bound, per cent of control [35]: 30% | kinase still bound, per cent of control [38]: 15% | kinase still bound, per cent of control [42]: 23%
Structure (SMILES): N=C1NC(=O)/C(=C/c2ccc(-c3cncc4ccccc34)o2)S1

kinase still bound, per cent of control [1]: 26% | kinase still bound, per cent of control [2]: 4.6% | kinase still bound, per cent of control [17]: 3.6% | kinase still bound, per cent of control [39]: 20%
Structure (SMILES): CS(=O)(=O)Nc1ccc(-c2ncc(/C=C3\SC(=N)NC3=O)s2)cc1

kinase still bound, per cent of control [3]: 3.6% | kinase still bound, per cent of control [12]: 21% | kinase still bound, per cent of control [17]: 28% | kinase still bound, per cent of control [28]: 24% | kinase still bound, per cent of control [38]: 11%
Structure (SMILES): CS(=O)(=O)Nc1ccc(-c2cncc(/C=C3\SC(=N)NC3=O)c2)cc1

kinase still bound, per cent of control [5]: 26% | kinase still bound, per cent of control [23]: 4.5% | kinase still bound, per cent of control [28]: 16% | kinase still bound, per cent of control [35]: 11% | kinase still bound, per cent of control [36]: 30%
Structure (SMILES): CN1C(=O)[C@H]2CCC[C@H]2N(C2CCCC2)c2nc(Nc3ccc(C(N)=O)cc3)ncc21
kinase still bound, per cent of control [27]: 8.9%

kinase still bound, per cent of control [20]: 29%
Structure (SMILES): Nc1cccc(-c2cc(/C=C3\SC(=O)NC3=O)c[nH]c2=O)c1
